Key:
OVCAR-3 cells = assay: Cell activity test, anti-proliferation (CellTiter Glo), OVCAR-3; assay type: cell-based, human; settings: OVCAR-3, 7 days of culture
Procedure: 2) Day 1: Laying Cell Plates
(6) 0.7 mL of cell suspension was pipetted into the counting cup, the cells were counted on ViCell XR, and the cell suspension was diluted separately with culture medium to the required cell concentration for laying cell plates: 1000/30 ul.
(7) Microplates (2 plates) were required, 100 uL of phosphate buffered saline was added to the peripheral wells of the 384-well plate, 30 uL of cell suspension was added to the other wells, and the cell plate was placed into incubator for culture.
(1) Compound preparation: the stock solution of the compound to be tested was 10 mM.
(2) The compound to be tested was diluted 3 times with DMSO for 10 gradients.
(2) The compound to be tested was diluted with culture medium, and the highest final concentration was 10 μM.
(4) 10 μL of the compound was pipetted into the 384-well plate, and then the cell plate was placed back into the incubator for culture.
4) Adding CTG and Reading the Plate
(1) After 7 days of culture, 50 ul CellTiter Glo was added to the cell plate, shaken for 10 minutes in the dark, and left at room temperature for 5 minutes.
(2) The plate was read on Envision with the program: US LUM 384 (CPS). The experiment was originally stored in the personal disk:
1. The mean and standard deviation of 0% inhibition (DMSO row, ZPE) and 100% inhibition (PBS row, HPE) were calculated;
2. Inhibition rate (%)=(1−(sample value-average value of 100% inhibition)/(average value of 0% inhibition-average value of 100% inhibition))*100;
3. The curve was fitted by GraphPad 8.0 software;

CDK4/CyclinD1 = CDK4/CyclinD1 (Homo sapiens (Human), UniProt P11802); assay: CDK4/CyclinD1 enzyme activity test (LANCE Ultra TR-FRET); assay type: biochemical; settings: 350 μM ATP, 25° C. 120 minutes, read-out: CDK4/Cyclin D1 IC50
Sequence of CDK4/CyclinD1 (P11802 whole entry): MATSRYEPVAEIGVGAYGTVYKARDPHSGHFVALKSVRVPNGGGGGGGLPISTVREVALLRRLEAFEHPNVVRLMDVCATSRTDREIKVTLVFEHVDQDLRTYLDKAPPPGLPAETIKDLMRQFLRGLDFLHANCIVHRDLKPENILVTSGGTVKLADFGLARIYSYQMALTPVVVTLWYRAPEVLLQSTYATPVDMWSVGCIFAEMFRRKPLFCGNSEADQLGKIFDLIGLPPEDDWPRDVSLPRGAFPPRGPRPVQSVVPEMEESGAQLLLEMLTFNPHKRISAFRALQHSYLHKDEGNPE
Sequence of CDK4/CyclinD1 (P24385 whole entry partner): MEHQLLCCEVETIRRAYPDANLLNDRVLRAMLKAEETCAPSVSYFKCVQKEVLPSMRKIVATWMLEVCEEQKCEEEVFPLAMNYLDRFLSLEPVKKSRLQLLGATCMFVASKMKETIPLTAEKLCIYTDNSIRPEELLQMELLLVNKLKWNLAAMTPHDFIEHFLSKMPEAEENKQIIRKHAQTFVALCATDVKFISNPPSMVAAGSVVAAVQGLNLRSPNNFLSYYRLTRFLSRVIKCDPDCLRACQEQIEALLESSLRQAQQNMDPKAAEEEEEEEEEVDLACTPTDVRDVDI
Procedure: CDK4/CyclinD1 Enzyme Reaction System
Preparation of Kinase Buffer:
The composition of the buffer: 50 mM of hydroxyethylpiperazine ethanesulfonic acid solution at pH 7.5, 1 mM of ethylenediaminetetraacetic acid, 10 mM of magnesium chloride, 0.01% Brij-35, and 2 mM of dithiothreitol.
Enzymes, substrate LANCE Ultra ULight™-4E-BP-1(Thr37146) Peptide, ATP, and inhibitors were diluted by kinase buffer.
The compounds to be tested were diluted 5-fold with a multi-channel pipette to the eighth concentration, that is, from 40 μM to 0.512 nM, the concentration of DMSO was 4%, and a double-hole experiment was set up. […] The reaction system was reacted at 25° C. for 120 minutes. After the reaction, 5 μL mixture of EDTA and 2× LANCE™ Detection Buffer (1:1) were added to each well, the reaction was carried out at 25° C. for 5 minutes, after the reaction was completed, 5 μL of LANCE Ultra Eu-anti-P-4E-BP1(Thr37MS) (4 nM) was added to each well, the reaction was carried out at 25° C. for 60 minutes, the reaction signal was detected by Nivo instrument according to the principle of time-resolved fluorescence resonance energy transfer.
(§1) The equation (Sample−Min)/(Max−Min)*100% was used to convert the raw data into inhibition rate, and the value of IC50 can be obtained by curve fitting with four parameters (obtained by log (inhibitor) vs. response-Variable slope mode in GraphPad Prism). The enzymatic inhibitory activity of the compounds of the present disclosure on CDK1/CyclinB1, CDK2/CyclinA2, CDK2/CyclinE1, CDK4/CyclinD1, CDK6/CyclinD1, CDK7/CyclinH/MAT1, CDK9/CyclinT1 was provided in Table 1.

CDK1/CyclinB1 = CDK1/CyclinB1 (Homo sapiens (Human), UniProt P06493); assay: CDK1/CyclinB1 enzyme activity test (ADP-Glo); assay type: biochemical; settings: 25 μM ATP, 25° C. 120 minutes, read-out: CDK1/Cyclin B IC50
Sequence of CDK1/CyclinB1 (P06493 whole entry): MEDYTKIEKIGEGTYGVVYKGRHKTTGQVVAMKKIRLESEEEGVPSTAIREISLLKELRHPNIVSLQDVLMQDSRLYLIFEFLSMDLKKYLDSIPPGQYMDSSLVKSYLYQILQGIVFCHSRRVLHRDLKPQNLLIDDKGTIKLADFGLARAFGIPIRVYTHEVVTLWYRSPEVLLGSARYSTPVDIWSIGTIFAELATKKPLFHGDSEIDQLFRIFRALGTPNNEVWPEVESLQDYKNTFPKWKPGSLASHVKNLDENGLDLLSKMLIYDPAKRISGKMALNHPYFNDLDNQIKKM
Sequence of CDK1/CyclinB1 (P14635 whole entry partner): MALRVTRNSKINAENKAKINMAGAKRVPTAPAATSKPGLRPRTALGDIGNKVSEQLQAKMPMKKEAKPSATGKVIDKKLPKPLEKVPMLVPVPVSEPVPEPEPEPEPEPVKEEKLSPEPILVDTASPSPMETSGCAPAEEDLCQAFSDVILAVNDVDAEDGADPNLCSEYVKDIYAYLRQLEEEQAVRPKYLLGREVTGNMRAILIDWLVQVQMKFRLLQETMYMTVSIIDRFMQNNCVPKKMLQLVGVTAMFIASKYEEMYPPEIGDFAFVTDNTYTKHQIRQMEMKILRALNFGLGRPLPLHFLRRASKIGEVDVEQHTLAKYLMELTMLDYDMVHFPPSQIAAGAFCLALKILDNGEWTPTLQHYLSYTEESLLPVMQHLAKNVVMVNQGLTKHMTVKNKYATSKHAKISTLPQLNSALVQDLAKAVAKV
Procedure: CDK1/CyclinB1 Enzyme Reaction System
Enzymes, substrates, ATP, and inhibitors were diluted by kinase buffer in the kit. The compounds to be tested were diluted 5-fold with a multi-channel pipette to the eighth concentration, that is, from 50 μM to 0.65 nM, the concentration of DMSO was 5%, and a double-hole experiment was set up. 1 μL of each concentration gradient of inhibitors, 2 μL of CDK1/CyclinB1 enzyme (12.5 ng), 2 μL mixture of substrate and ATP (25 μM adenosine triphosphate, 0.2 μg/μL substrate) were added to the microplates, and the final concentration gradient of the compound was 10 μM to 0.13 nM. The reaction system was reacted at 25° C. for 120 minutes. After the reaction, 5 μL of ADP-Glo reagent was added to each well, the reaction was carried out at 25° C. for 40 minutes, after the reaction was completed, 10 μL of kinase detection reagent was added to each well, the reaction was carried out at 25° C. for 30 minutes, the multiple label analyzer was used to read the chemiluminescence with an integration time of 0.5 seconds.
as §1

[1] = Pharmacokinetic evaluation in CD-1 (ICR) mice, oral; assay type: in vivo, mouse; settings: male CD-1 (ICR) mice, oral 5 mg/kg, plasma
Procedure: Experimental Scheme of Compounds 18, 19 and 20
The healthy adult male CD-1 (ICR) mice used in this study were purchased from Pinghu Weitong Lihua Experimental Animal Technology Co., Ltd.
0.300 mL of the stock solution was measured and vortexed for 2 minutes to obtain a homogeneous suspension at a concentration of 1 mg/mL, and the administration vehicle was 1% HPMC in water.
Two male CD-1 (ICR) mice were given 5 mg/kg of the compound to be tested by intragastric administration.
The blood of two animals was collected at each time point by serial blood collection. 30 μL of whole blood was collected respectively at 0.25, 0.5, 1, 2, 4, 8, and 24 hours after administration. The whole blood was placed in an anticoagulant tube, centrifuged at 3200 g for 10 minutes at 4° C., plasma was prepared and stored at −60° C. or lower. The drug concentration in plasma was determined by LC/MS-MS.

IC50 (OVCAR-3 cells)	IC50 (CDK4/CyclinD1)	IC50 (CDK1/CyclinB1)	Oral exposure AUC0-t [1]	SMILES
44 nM	0.5 nM	8.86 nM		CS(=O)(=O)N1CCC(Nc2ncc3cc(C(F)F)nc(N[C@@H]4CCCC4(F)F)c3n2)CC1 (single isomer, unassigned) [Compound 22]
29 nM	4.26 nM		3.143 µM·h	Cc1cn(C)nc1Nc1nc(C(F)F)cc2cnc(NC3CCN(S(C)(=O)=O)CC3)nc12 [Compound 19]
12 nM	0.82 nM		2.746 µM·h	Cn1cc(Cl)c(Nc2nc(C(F)F)cc3cnc(NC4CCN(S(C)(=O)=O)CC4)nc23)n1 [Compound 20]

— US20230303564A1, “PYRIMIDINE RING COMPOUND” (MEDSHINE DISCOVERY INC., priority 2020, published 2023)
